Experimental findings from the supplement of paper PMC10307832 are described below.

Holding throughout (assay): relative viability (nuclei count vs DMSO), 5 days (fraction); higher = more cells survive
Compound in test [1]: CC1=C(N=C(N=C1N)[C@H](CC(=O)N)NC[C@@H](C(=O)N)N)C(=O)N[C@@H]([C@H](C2=CN=CN2)OC3C(C(C(C(O3)CO)O)O)OC4C(C(C(C(O4)CO)O)OC(=O)N)O)C(=O)N[C@H](C)[C@H]([C@H](C)C(=O)N[C@@H]([C@@H](C)O)C(=O)NCCC5=NC(=CS5)C6=NC(=CS6)C(=O)NCCC[S+](C)C)O [Bleomycin] + CC(C)C[C@H](NC(=O)[C@H](Cc1ccccc1)NC(=O)c1cnccn1)B(O)O [Bortezomib] (partner 0.002 µM)
The following applies: main component drawn. Summed up: (§1)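 Cells from lung cancer lines were seeded into 1536-well plates and, one day later, dosed by pin tool. Treatments were either a single drug or a fixed dose of an anchor drug with five library-drug doses (not always all listed) in √10 steps. After 5 days, nuclei were stained in a one-step fixation (final 0.05% Triton X-100, 1% formaldehyde, 1 ug/ml Hoechst) and counted on 4× images, and relative viability is the treated-to-vehicle nuclei ratio, as the median of duplicate plates.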

Compound in test [2]: CC1=C(N=C(N=C1N)[C@H](CC(=O)N)NC[C@@H](C(=O)N)N)C(=O)N[C@@H]([C@H](C2=CN=CN2)OC3C(C(C(C(O3)CO)O)O)OC4C(C(C(C(O4)CO)O)OC(=O)N)O)C(=O)N[C@H](C)[C@H]([C@H](C)C(=O)N[C@@H]([C@@H](C)O)C(=O)NCCC5=NC(=CS5)C6=NC(=CS6)C(=O)NCCC[S+](C)C)O [Bleomycin] + CS(=O)(=O)CCNCc1ccc(-c2ccc3ncnc(Nc4ccc(OCc5cccc(F)c5)c(Cl)c4)c3c2)o1 [Lapatinib] (partner 2 µM)
To be noted: main component drawn. Summed up: as §1

Compound in test [3]: COc1cc([C@@H]2c3cc4c(cc3[C@@H](O[C@@H]3O[C@@H]5CO[C@@H](C)O[C@H]5[C@H](O)[C@H]3O)[C@H]3COC(=O)[C@H]23)OCO4)cc(OC)c1O [Etoposide] + COc1cccc2cc(-c3nc([C@H]4CC[C@H](C(=O)O)CC4)n4ncnc(N)c34)[nH]c12 [OSI-027] (partner 0.5 µM)
Summed up: as §1

Compound in test [4]: COc1cc([C@@H]2c3cc4c(cc3[C@@H](O[C@@H]3O[C@@H]5CO[C@@H](C)O[C@H]5[C@H](O)[C@H]3O)[C@H]3COC(=O)[C@H]23)OCO4)cc(OC)c1O [Etoposide] + Cc1nc(NC(=O)N2CCC[C@H]2C(N)=O)sc1-c1ccnc(C(C)(C)C(F)(F)F)c1 [Alpelisib] (partner 2 µM)
Summed up: as §1

UMC-11: the relative viability in test [1] (first compound 0.01 µM) is 0.626; in test [1] (first compound 0.03162 µM), 0.587; in test [1] (first compound 0.1 µM) it was 0.576; in test [1] (first compound 0.3162 µM) it was 0.477; in test [1] (first compound 1 µM) it was 0.304; in test [2] (first compound 0.01 µM), 0.879. Besides, the relative viability came out at 0.819 in test [2] (first compound 0.03162 µM); 0.971 in test [2] (first compound 0.1 µM); 0.737 in test [2] (first compound 0.3162 µM); 0.503 in test [2] (first compound 1 µM); 0.443 in test [3] (first compound 0.01 µM); 0.544 in test [3] (first compound 0.03162 µM). Also, the relative viability was 0.299 in test [3] (first compound 0.1 µM); 0.431 in test [3] (first compound 0.3162 µM); 0.3 in test [3] (first compound 1 µM); 0.943 in test [4] (first compound 0.01 µM); 1.11 in test [4] (first compound 0.03162 µM); 0.352 in test [4] (first compound 0.3162 µM). In addition, the relative viability in test [4] (first compound 1 µM) came out at 0.222.
